Reference: patent publication US20030206898A1, “Use of anti-TNFalpha antibodies and another drug” (priority 2002, published 2003)
“And” between values parts separate entries of the source, which are not always exact repeats. Equal values may be shown once. “Also recorded” adds a separate entry of the source.

How the values were obtained:
[1] = test system: patients with rheumatoid arthritis (RA); test: Multicenter, randomized, double-blind, placebo-controlled study of D2E7 40 mg sc every other week added to current anti-rheumatic therapies: efficacy (ACR response); type: in vivo, human
Description: (§1) A study was designed and conducted to investigate the safety and efficacy of D2E7 40 mg administered every other week to patients with RA whose disease was not adequately treated with their current anti-rheumatic therapies (including accepted DMARDs, NSAIDs, or steroids); and was a multicenter, randomized, double-blind, placebo-controlled study in which D2E7 was subcutaneously (sc) administered every other week for up to 24 weeks at a dosage of 40 mg to patients with rheumatoid arthritis (RA) whose disease was not adequately treated with their current anti-rheumatic therapies. Anti-rheumatic therapies permitted for use during the study included accepted disease-modifying anti-rheumatic drugs (DMARDs), non-steroidal anti-inflammatory drugs (NSAIDs), or steroids. Despite using anti-rheumatic therapies, patients must have had active disease documented at both the screening and baseline visits. Doses of DMARDs, as well as concomitant prednisone (<10 mg daily) and NSAIDs, were required to be stable for at least 28 days prior to screening. Additionally, patients using azathioprine and/or cyclosporine discontinued these therapies and underwent a 28-day washout period before screening. At the baseline visit, patients were randomized to D2E7 or placebo and this signified the start of the 24-week placebo-controlled period. Patients were examined at Weeks 2, 4, 8, 12, 16, 20 and 24 of the study.
Patients were inadequately treated with their current anti-rheumatic therapies and had active RA, defined as ≧6 swollen joints and ≧9 tender joints. Additionally, patients using glucocorticoids were allowed into the study if the dose was equivalent to <10 mg/day prednisone and had remained unchanged for at least 28 days.
D2E7 was supplied in 2-mL glass vials (the concentration of D2E7 in each vial was 25 mg/mL (ie, 40 mg/1.6 mL)), each containing 40 mg D2E7/1.6 mL solution for injection. D2E7 was manufactured and supplied by Ebewe Arzneimittel GmbH, in Unterach, Austria. McKesson, HBOC Biosciences, in Rockville, Md., USA, packaged, labeled, stored and distributed D2E7 to the investigators at each site for this study. D2E7 was self-administered as a single sc injection of 40 mg every other week for a period of 24 weeks. The concentration of study drug was 25 mg/mL. Placebo/1.6 mL (citrate-phosphate buffer solution without D2E7) was self-administered as a single sc injection every other week for a period of 24 weeks.
Patients continued to receive their pre-study dose of anti-rheumatic therapies. Anti-rheumatic therapies permitted for use during the study included DMARDs (hydroxychloroquine, leflunomide, methotrexate, parenteral gold, oral gold and sulfasalazine, or any combination of these or other DMARDs), NSAIDs and steroids. Doses of these DMARDs as well as concomitant prednisone (<10 mg daily) and NSAIDs must have been stable for at least 28 days prior to screening.
Efficacy endpoints included: ACR20 response at Week 24; ACR50 and ACR70 at Week 24; AUC (area under the curve) of ACR20, ACR50 and ACR70 from baseline to Week 24; time to first response for ACR20, ACR50 and ACR70; numeric ACR (ACR—N); change from baseline to Week 24 in components of the ACR response criteria (tender joint count [TJC], swollen joint count [SJC], patient assessment of pain, patient and physician global assessments of disease activity, HAQ and C-reactive protein [CRP]); change from baseline to Week 24 in physical function as measured by SF-36, health utilities index (HUI), functional assessment of chronic illness therapy (FACIT) fatigue scale; Euro-QoL questionnaire; multidimensional assessment of fatigue (MAF) scale; subject summary survey; incidence and time to dose increases in background DMARD and/or steroid therapy; institution of new DMARD therapy for lack of clinical response; rheumatoid factor (RF); and morning stiffness.
Adverse events were summarized by frequency, percentage, as well as the rate per 100 patient-years. […]

[2] = test system: patients with rheumatoid arthritis (RA); test: Same RA study: safety / adverse events; type: in vivo, human
Description: as §1, with “Additionally, patients using azathioprine and/or cyclosporine discontinued these therapies and underwent a 28-day washout period before screening. At the baseline visit, patients were randomized to D2E7 or placebo and this signified the start of the 24-week placebo-controlled period. Patients were examined at Weeks 2, 4, 8, 12, 16, 20 and 24 of the study.” left out
Adverse events were summarized by frequency, percentage, as well as the rate per 100 patient-years. […] All other efficacy variables were summarized descriptively (statistical characteristics, frequencies, percentages, confidence intervals) and analyzed by exploratory two-sided statistical tests. […]

[3] = Week 2, full analysis set, excluding Site #7
[4] = Week 4, full analysis set, excluding Site #7
[5] = Week 8, full analysis set, excluding Site #7
[6] = Week 12, full analysis set, excluding Site #7
[7] = Week 16, full analysis set, excluding Site #7
[8] = Week 20, full analysis set, excluding Site #7
[9] = Week 24, full analysis set, excluding Site #7
[10] = Week 24, subgroup Three or more DMARDs
[11] = Week 24, subgroup concomitant Antimalarial
[12] = Week 24, subgroup concomitant Leflunomide
[13] = Week 24, subgroup concomitant Methotrexate
[14] = Week 24, subgroup concomitant Sulfasalazine
[15] = through Week 24, full analysis set, excluding Site #7

D2E7: recombinant, neutralizing human anti-hTNFα antibody; VL region SEQ ID NO: 1, VH region SEQ ID NO: 2
ACR50 response, patients responding ([1]; LOCF Week 24, N = 315): 95 (30.2) N (%) | ACR70 response, patients responding ([1]; LOCF Week 24, N = 315): 48 (15.2) N (%) | ACR-N, Mean ± SD ([1]; LOCF Week 24, N = 315): 21.2 ± 55.3 | Time to response ACR20: patients responding for the first time [1, 3]: 106 (33.7) N (%) | Time to response ACR50: patients responding for the first time [1, 3]: 31 (9.8) N (%) | Time to response ACR70: patients responding for the first time [1, 3]: 9 (2.9) N (%) | Time to response ACR20: patients responding for the first time [1, 4]: 51 (16.2) N (%) | Time to response ACR50: patients responding for the first time [1, 4]: 31 (9.8) N (%) | Time to response ACR70: patients responding for the first time [1, 4]: 12 (3.8) N (%) | Time to response ACR20: patients responding for the first time [1, 5]: 52 (16.5) N (%) | Time to response ACR50: patients responding for the first time [1, 5]: 34 (10.8) N (%) | Time to response ACR70: patients responding for the first time [1, 5]: 12 (3.8) N (%) | Time to response ACR20: patients responding for the first time [1, 6]: 17 (5.4) N (%) | Time to response ACR50: patients responding for the first time [1, 6]: 20 (6.3) N (%) | Time to response ACR70: patients responding for the first time [1, 6]: 18 (5.7) N (%) | Time to response ACR20: patients responding for the first time [1, 7]: 13 (4.1) N (%) | Time to response ACR50: patients responding for the first time [1, 7]: 20 (6.3) N (%) | Time to response ACR70: patients responding for the first time [1, 7]: 18 (5.7) N (%) | Time to response ACR20: patients responding for the first time [1, 8]: 12 (3.8) N (%) | Time to response ACR50: patients responding for the first time [1, 8]: 9 (2.9) N (%) | Time to response ACR70: patients responding for the first time [1, 8]: 7 (2.2) N (%) | ACR20 response, patients responding ([1]; Week 24, 40 mg sc every other week, N = 315): 167 (53.0) N (%) | ACR20 response (primary efficacy endpoint) ([1]; Week 24, D2E7 added to current anti-rheumatic therapies): 53.0% | ACR50 response, patients responding ([1]; Week 24, N = 315): 92 (29.2) N (%) and 92 (29.2)^a N (%) | ACR70 response, patients responding ([1]; Week 24, N = 315): 47 (14.9) N (%) and 47 (14.9)^a N (%) | ACR-N, Mean ± SD ([1]; Week 24, N = 315): 20.3 ± 55.2 | Time to response ACR20: patients responding for the first time [1, 9]: 3 (1.0) N (%) | Time to response ACR50: patients responding for the first time [1, 9]: 10 (3.2) N (%) | Time to response ACR70: patients responding for the first time [1, 9]: 8 (2.5) N (%) | ACR20 % Response ([1]; Week 24, subgroup No DMARD): 50.0% | ACR50 response ([1]; Week 24, subgroup No DMARD): 27.8% | ACR70 response ([1]; Week 24, subgroup No DMARD): 18.5% | ACR-N, Mean ± SD ([1]; Week 24, subgroup No DMARD): 12.8 ± 68.2 | ACR20 % Response ([1]; Week 24, subgroup One DMARD): 55.4% | ACR50 response ([1]; Week 24, subgroup One DMARD): 31.0% | ACR70 response ([1]; Week 24, subgroup One DMARD): 16.3% | ACR-N, Mean ± SD ([1]; Week 24, subgroup One DMARD): 22.8 ± 56.0 | ACR20 % Response ([1]; Week 24, subgroup Other DMARDs): 52.0% | ACR50 response ([1]; Week 24, subgroup Other DMARDs): 24.0% | ACR70 response ([1]; Week 24, subgroup Other DMARDs): 16.0% | ACR-N, Mean ± SD ([1]; Week 24, subgroup Other DMARDs): 25.3 ± 33.9 | ACR20 % Response [1, 10]: 45.5% | ACR50 response [1, 10]: 18.2% | ACR70 response [1, 10]: 9.1% | ACR-N, Mean ± SD [1, 10]: 20.1 ± 37.2 | ACR20 % Response ([1]; Week 24, subgroup Two DMARDs): 50.0% | ACR50 response ([1]; Week 24, subgroup Two DMARDs): 27.3% | ACR70 response ([1]; Week 24, subgroup Two DMARDs): 9.1% | ACR-N, Mean ± SD ([1]; Week 24, subgroup Two DMARDs): 19.5 ± 42.3 | ACR20 % Response [1, 11]: 50.7% | ACR50 response [1, 11]: 29.3% | ACR70 response [1, 11]: 12.0% | ACR-N, Mean ± SD [1, 11]: 20.0 ± 45.5 | ACR20 % Response [1, 12]: 33.3% | ACR50 response [1, 12]: 14.3% | ACR70 response [1, 12]: 0.0% | ACR-N, Mean ± SD [1, 12]: −0.5 ± 77.5 | ACR20 % Response [1, 13]: 56.7% | ACR50 response [1, 13]: 30.9% | ACR70 response [1, 13]: 15.2% | ACR-N, Mean ± SD [1, 13]: 26.5 ± 42.3 | ACR20 % Response [1, 14]: 58.6% | ACR50 response [1, 14]: 34.5% | ACR70 response [1, 14]: 17.2% | ACR-N, Mean ± SD [1, 14]: 21.4 ± 53.9 | Subgroup analyses of ACR20, ACR50, ACR70, ACR-N and their AUC ([1]; concomitant methotrexate, antimalarials, sulfasalazine, other DMARDs, or 0, 1, 2, ≧3 DMARDs, vs placebo): greater improvement; also recorded: higher response compared to placebo | Improvement in RA in patients inadequately treated with existing DMARD therapies ([1]; in vivo): significant improvement | Time to response ACR20: Non-responder [1, 15]: 61 (19.4) N (%) | Time to response ACR50: Non-responder [1, 15]: 160 (50.8) N (%) | Time to response ACR70: Non-responder [1, 15]: 231 (73.3) N (%) | Time to response and AUC for ACR20, ACR50, ACR70; AUC for ACR-N; Euro-QoL, RF, MAF scale ([1]; vs placebo): improvement in therapeutic response over placebo | Tolerability when added to existing DMARD therapies ([2]; 40 mg sc every other week, up to 24 weeks): generally well-tolerated | Safety alone or in combination with other DMARDs ([2]; dose of 40 mg): safe
